Assay [1] deals with Nitric oxide synthase 1 (Homo sapiens, UniProt P29475). Put plainly: Inhibitory constant for the inhibition of human Neuronal nitric oxide synthase.
In assay [2] the target is T1, Nitric oxide synthase 3 (Homo sapiens, UniProt P29474).
T1 sequence (P29474 whole entry): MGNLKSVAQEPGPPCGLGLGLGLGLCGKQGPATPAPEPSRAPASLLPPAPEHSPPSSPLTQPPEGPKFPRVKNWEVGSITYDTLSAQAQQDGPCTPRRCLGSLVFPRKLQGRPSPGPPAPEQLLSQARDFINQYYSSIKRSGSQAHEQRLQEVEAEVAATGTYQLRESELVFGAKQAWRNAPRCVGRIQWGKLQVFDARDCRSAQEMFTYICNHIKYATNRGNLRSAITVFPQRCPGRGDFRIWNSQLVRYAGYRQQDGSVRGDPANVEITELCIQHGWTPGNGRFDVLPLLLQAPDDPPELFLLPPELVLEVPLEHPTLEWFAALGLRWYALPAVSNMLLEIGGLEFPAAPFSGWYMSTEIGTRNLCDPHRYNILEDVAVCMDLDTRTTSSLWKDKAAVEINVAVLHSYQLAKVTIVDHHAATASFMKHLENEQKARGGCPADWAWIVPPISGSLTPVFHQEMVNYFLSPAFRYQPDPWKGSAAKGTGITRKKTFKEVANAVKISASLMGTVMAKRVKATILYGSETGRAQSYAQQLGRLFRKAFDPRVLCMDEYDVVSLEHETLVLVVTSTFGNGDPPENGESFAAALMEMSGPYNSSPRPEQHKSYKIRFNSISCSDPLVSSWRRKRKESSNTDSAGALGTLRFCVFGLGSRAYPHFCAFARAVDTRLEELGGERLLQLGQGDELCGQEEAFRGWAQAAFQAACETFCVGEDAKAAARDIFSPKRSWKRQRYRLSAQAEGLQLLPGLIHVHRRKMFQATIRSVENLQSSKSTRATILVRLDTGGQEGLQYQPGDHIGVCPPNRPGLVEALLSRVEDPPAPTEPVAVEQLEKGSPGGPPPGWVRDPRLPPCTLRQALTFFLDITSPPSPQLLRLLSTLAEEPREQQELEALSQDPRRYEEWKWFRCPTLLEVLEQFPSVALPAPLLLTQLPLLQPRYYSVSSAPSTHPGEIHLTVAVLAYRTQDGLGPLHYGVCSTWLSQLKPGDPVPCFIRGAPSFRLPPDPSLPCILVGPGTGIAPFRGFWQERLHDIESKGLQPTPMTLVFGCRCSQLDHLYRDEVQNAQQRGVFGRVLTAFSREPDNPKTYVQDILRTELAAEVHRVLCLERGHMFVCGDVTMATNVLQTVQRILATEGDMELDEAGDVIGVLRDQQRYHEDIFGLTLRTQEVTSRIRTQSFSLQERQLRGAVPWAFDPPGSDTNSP
Put plainly: Inhibitory constant for the inhibition of human Endothelial nitric oxide synthase.

Assay [3] addresses Nitric oxide synthase, inducible (Homo sapiens, UniProt P35228). Description: Inhibitory constant for the inhibition of human Inducible nitric oxide synthase.

SMILES strings stand for the structures.

In general, Ki refers to a measure of affinity in units of concentration, obtained from inhibition or displacement.

Nitric oxide synthase, inducible, sequence (P35228 whole entry): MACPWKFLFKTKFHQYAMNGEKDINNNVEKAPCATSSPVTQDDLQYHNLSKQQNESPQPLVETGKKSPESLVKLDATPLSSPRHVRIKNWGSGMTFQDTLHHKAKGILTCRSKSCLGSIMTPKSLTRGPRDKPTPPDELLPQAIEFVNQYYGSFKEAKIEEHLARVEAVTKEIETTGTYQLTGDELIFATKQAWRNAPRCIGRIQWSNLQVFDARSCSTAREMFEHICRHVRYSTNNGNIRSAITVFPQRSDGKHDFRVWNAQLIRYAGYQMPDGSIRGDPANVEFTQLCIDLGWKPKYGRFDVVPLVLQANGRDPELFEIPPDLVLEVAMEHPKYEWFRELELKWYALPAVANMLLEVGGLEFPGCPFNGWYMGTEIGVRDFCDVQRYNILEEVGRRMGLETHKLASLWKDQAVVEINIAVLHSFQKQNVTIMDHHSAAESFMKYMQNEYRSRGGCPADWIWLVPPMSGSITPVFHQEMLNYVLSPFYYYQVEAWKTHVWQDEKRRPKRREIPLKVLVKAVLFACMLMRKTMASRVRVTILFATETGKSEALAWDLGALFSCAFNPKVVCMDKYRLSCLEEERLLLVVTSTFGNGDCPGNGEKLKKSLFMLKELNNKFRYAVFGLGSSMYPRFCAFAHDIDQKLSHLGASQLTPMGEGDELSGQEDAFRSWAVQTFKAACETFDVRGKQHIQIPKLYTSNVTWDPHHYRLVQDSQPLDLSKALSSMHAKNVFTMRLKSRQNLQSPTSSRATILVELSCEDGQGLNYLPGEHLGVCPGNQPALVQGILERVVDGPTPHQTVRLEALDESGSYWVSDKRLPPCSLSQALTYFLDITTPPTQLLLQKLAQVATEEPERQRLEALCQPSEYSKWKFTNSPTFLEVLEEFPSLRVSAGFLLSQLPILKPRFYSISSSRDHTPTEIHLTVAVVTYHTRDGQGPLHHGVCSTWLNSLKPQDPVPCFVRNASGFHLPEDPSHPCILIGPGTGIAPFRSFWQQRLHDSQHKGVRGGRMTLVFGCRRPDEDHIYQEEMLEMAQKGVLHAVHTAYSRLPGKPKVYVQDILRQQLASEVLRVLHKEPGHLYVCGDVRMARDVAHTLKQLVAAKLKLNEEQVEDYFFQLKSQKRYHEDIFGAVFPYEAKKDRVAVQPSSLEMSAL
Nitric oxide synthase 1, sequence (P29475 whole entry): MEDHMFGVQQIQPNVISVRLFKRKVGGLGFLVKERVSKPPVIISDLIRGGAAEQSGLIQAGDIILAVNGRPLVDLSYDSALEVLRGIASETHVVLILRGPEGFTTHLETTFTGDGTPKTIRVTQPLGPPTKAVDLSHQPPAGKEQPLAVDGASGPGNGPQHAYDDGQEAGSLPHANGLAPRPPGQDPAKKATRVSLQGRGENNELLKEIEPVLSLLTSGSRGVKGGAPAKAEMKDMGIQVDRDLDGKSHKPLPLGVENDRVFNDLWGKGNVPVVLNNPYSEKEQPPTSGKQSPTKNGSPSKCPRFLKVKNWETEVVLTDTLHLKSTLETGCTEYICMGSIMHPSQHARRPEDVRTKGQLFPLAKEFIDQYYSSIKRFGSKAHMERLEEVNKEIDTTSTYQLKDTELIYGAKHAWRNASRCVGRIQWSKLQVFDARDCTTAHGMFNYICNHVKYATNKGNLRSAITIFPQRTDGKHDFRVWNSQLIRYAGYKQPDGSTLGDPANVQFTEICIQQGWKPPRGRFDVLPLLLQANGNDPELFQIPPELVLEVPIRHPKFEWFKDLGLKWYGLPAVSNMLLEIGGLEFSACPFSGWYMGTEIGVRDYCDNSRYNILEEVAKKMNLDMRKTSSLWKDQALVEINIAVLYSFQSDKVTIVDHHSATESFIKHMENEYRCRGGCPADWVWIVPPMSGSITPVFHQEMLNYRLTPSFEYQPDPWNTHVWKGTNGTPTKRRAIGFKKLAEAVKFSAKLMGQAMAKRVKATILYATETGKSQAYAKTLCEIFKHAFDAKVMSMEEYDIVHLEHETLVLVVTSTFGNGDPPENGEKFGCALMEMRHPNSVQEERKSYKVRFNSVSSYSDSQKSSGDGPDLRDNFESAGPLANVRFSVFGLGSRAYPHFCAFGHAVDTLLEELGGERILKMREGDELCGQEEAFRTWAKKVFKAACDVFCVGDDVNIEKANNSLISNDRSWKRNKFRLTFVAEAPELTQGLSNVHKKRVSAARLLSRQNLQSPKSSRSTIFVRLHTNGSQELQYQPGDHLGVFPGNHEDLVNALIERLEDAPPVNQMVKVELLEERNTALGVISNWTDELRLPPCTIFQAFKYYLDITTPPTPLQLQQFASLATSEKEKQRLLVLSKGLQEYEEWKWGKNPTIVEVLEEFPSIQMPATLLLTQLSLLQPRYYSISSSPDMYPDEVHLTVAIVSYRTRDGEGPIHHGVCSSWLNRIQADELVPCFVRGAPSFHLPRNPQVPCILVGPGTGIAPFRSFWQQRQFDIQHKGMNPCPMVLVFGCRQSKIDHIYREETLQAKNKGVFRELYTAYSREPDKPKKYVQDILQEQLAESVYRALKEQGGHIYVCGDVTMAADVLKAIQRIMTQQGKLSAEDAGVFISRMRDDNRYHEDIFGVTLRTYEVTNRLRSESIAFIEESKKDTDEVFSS

Take `NC(N)=Nc1ccccc1CC(N)C(=O)O` (stereo not given): the Ki was found to be 0.37 µM in assay [1], 0.25 µM in assay [2] and 2.6 µM in assay [3].

Turning to `CNC(N)=Nc1cccc(CC(N)C(=O)O)c1` (stereo not given), the Ki in assay [1] is 8.4 µM; in assay [2], 8.8 µM; in assay [3], 96 µM.

Regarding `CC(=N)Nc1cccc(CC(N)C(=O)O)c1` (stereo not given), the inhibitory constant (Ki) in assay [1] came out at 29 µM; in assay [2], 39 µM; in assay [3] it was 82 µM.

In the case of `C/N=C(/N)Nc1ccccc1CC(N)C(=O)O` (stereo not given), the inhibition constant Ki in assay [1] was determined as 0.41 µM; in assay [2], 0.27 µM; in assay [3] it was 0.6 µM.

With `N=C(N)Nc1cccc(CC(N)C(=O)O)c1` (stereo not given), the Ki is 44 µM in assay [1], 46 µM in assay [2] and 100 µM in assay [3].

For `CC(=N)Nc1ccccc1CC(N)C(=O)O` (stereo not given), the inhibitory constant (Ki) turned out to be 1.3 µM in assay [1], 1.6 µM in assay [2] and 1.9 µM in assay [3].

Take `CC(=N)NCCC[C@H](N)C(=O)O` [L-NIO]: the Ki was 0.81 µM in assay [2] and 0.34 µM in assay [3].

The values above are taken from ChEMBL document CHEMBL1130474, “Conformationally restricted arginine analogues as inhibitors of human nitric oxide synthase” (Bioorg Med Chem Lett, 1997).
